We go through nine molecules from US20190270778A1, “Cyclic Peptides As C5a Receptor Antagonists” (priority 2016, published 2019).

Assay [1] addresses T1, C5a receptor (Homo sapiens, UniProt P21730).
T1 construct: endogenous in cells; host or cells: leukocytes/granulocytes in freshly drawn whole blood of healthy volunteers
T1 sequence (P21730 1-350): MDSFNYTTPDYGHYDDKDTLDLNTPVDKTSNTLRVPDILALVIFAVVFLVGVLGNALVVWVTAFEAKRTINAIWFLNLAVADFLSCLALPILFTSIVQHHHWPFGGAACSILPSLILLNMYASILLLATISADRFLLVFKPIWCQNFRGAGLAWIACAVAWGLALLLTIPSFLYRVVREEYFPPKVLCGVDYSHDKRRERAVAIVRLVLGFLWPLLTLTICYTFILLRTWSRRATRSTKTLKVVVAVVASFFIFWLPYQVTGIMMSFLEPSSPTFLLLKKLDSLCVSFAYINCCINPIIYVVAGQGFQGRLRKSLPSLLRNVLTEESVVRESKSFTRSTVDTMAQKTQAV
The assay can be described thus: HWB CD11b expression assay (C5a-challenged granulocytes, flow cytometry). Format: cell-based. As to the method: HWB was collected from healthy, non-medicated volunteers into BD Vacutainer® blood collection tubes with K2EDTA as an anticoagulant. HWB was aliquoted (85 μL/well) in 96-well, deep-well, V-bottom plates and incubated at 37° C. for 30 minutes. Test compounds (5 μL/well) were added to HWB and incubated at 37° C. for 30 minutes. Anti-human CD11b antibody conjugated with APC (BD Biosciences) was added to HWB (5 μL/well) and incubated at 37° C. for additional 30 minutes. HWB was then challenged with human C5a (final 1 nM) for 30 minutes at 37° C. Samples were treated with warm 1× Lyse/Fix buffer (BD Biosciences) to terminate activation and further incubated at 37° C. for 20 minutes to lyse red blood cells. Assay plates were centrifuged at 300×g for 5 minutes, supernatant was aspirated, and cells were washed once with PBS containing 0.5% FBS. Washed cells were resuspended in PBS containing 0.5% FBS and subjected to flow cytometric analysis using an LSRFortessa equipped with a HTS plate loader (BD Biosciences). The granulocyte population was gated for analysis of MF of CD11b staining using FACSDiva version 6.2 (BD Biosciences). Data from 11 compound concentrations (singlicate at each concentration) was normalized as a percentage of control based on the formula:
% of Control=100×(A−B)/(C−B)
where A is MF from wells containing test compound and C5a, B is MF from wells without C5a (background MF from unstimulated samples) and C is MF from wells containing only C5a (maximum MF). Inhibition curves and IC50 values (test compound concentrations which produce 50% inhibition) were determined using the Prism version 5 software (GraphPad). HWB was also stimulated with 11 different concentrations of C5a to construct a responsive curve and to obtain EC50 value (the concentration of C5a that gives half-maximal response) and curve slope using the Prism version 5 software. Kb (nM) was then calculated using the equation described by Leff and Dougal (TIPS 1993 14:110-112).
A general note: Flow cytometry measures light scatter and fluorescence of single cells or particles in a stream.

For assay [2], the target named is T1, C5a receptor. Put plainly: HWB oxidative burst assay (C5a-induced, luminol chemiluminescence). The format is cell-based. As to the method:
Inhibition of oxidative burst activity was determined in HWB primed with TNF-α and stimulated with C5a. C5a-induced oxidative burst response (generation of reactive oxygen species) was then detected in the presence of luminol as a chemiluminescent signal.
On the day of assay, HWB was collected from a healthy, non-medicated volunteer into tubes containing 3.8% sodium citrate (final sodium citrate concentration in HWB is 0.38%) and stored in a 37° C. water bath until use (no longer than 60 minutes).
To start the assay, TNF-α was added to HWB to a final concentration of 1.0 nM and 68 μL of this HWB/TNF-α mix was transferred to each well of a 384-well white Optiplate (assay plate). 4.0 μL of various concentrations of test agent were then added to the assay plate and mixed twice gently by aspirating up and down. The assay plate was then placed on a thermoshaker (JITTERBUG-4) and incubated at 37° C. (without shaking). After 60 minutes, C5a (Complement Technology) prepared in luminol (Sigma) was added to the assay plate and mixed twice gently by aspirating up and down. The plate was then placed in a ViewLux 1430 Microplate Imager (Perkin Elmer). After 5 minutes, oxidative burst activity was determined with the ViewLux by measuring luminol-enhanced whole blood chemiluminescence. Final assay conditions were 1.5 mM HEPES pH 7.5, 0.015% BSA, 15% HBSS, 0.85 ng/mL TNFα, 1.0 mM Luminol, C5a 20 nM, 76.5% HWB, 0.15% DMSO and various concentrations of test agent.
The percent (%) effect at each concentration of test agent was then calculated based on and relative to the amount of signal that was produced by positive (i.e. full inhibition of C5a induced oxidative burst) and negative (i.e. completely uninhibited C5a induced oxidative burst) control wells contained within each assay plate. The concentration and % effect values for test agents were plotted and the concentration of test agent required for 50% effect (IC50) was determined with a four-parameter logistic dose response equation (BioBook; IDBS). Kb (nM) was then calculated (BioBook; IDBS) using the equation described by Leff and Dougal (TIPS 1993 14:110-112).

The structures appear in SMILES notation. Numbered stars: 1 amine (or outer) side, 2 acyl side, 3 side chain; on linkers, the order of the positions; unused ones are H or OH. Bridge positions count the residues as written; N and C are the ends. Square brackets hold non-standard residues; d marks the D form. Peptide text beside a SMILES is read from it. * marks the point of attachment. X2 = O=C([C@@H](C[C@H]1CC[C@@H](O)CC1)N[*:1])[*:2]; X1 = CN(CC(=O)O)[C@@H](Cc1ccccc1)C(=O)*; Hyp = O=C(O)[C@@H]1C[C@@H](O)CN1; Orn = NCCC[C@H](N)C(=O)O

`N=C(N)NCCC[C@@H]1NC(=O)[C@H](Cc2c[nH]c3ccccc23)NC(=O)[C@@H](C[C@H]2CC[C@@H](O)CC2)NC(=O)[C@@H]2C[C@H](N)CN2C(=O)[C@@H](NC(=O)[C@H](Cc2ccccc2)NCC(=O)O)CCCNC1=O` [Example 7, ((S)-1-(((3R,6S,9S,15S,19S,20aS)-6-((1H-indol-3-yl)methyl)-19-amino-9-(3-guanidinopropyl)-3-(((1s,4S)-4-hydroxycyclohexyl)methyl)-1,4,7,10,16-pentaoxoicosahydropyrrolo[1,2-a][1,4,7,10,13]pentaazacyclooctadecin-15-yl)amino)-1-oxo-3-phenylpropan-2-yl)glycine]: the Kb came to 10.9 nM in assay [1] and 1.8 nM in assay [2]. For the molecule `N=C(N)NCCC[C@@H]1NC(=O)[C@H](Cc2c[nH]c3ncccc23)NC(=O)[C@@H](C[C@H]2CC[C@@H](O)CC2)NC(=O)[C@@H]2CCCN2C(=O)[C@@H](NC(=O)[C@H](Cc2ccccc2)NCC(=O)O)CCCNC1=O` [Example 5, ((S)-1-(((3R,6S,9S,15S,20aS)-6-((1H-pyrrolo[2,3-b]pyridin-3-yl)methyl)-9-(3-guanidinopropyl)-3-(((1s,4S)-4-hydroxycyclohexyl)methyl)-1,4,7,10,16-pentaoxoicosahydropyrrolo[1,2-a][1,4,7,10,13]pentaazacyclooctadecin-15-yl)amino)-1-oxo-3-phenylpropan-2-yl)glycine], the Kb is 300 nM in assay [1] (human whole blood challenged with human C5a 1 nM, granulocyte CD11b mean fluorescence, Kb calculated from IC50 (Leff and Dougal), read-out: CD11b, Kb); 27.3 nM in assay [2] (human whole blood primed with TNF-α, stimulated with C5a 20 nM, Kb calculated from IC50 (Leff and Dougal), read-out: Oxidative burst, Kb). As to `CC(=O)N[C@H]1C[C@H]2C(=O)N[C@H](C[C@H]3CC[C@@H](O)CC3)C(=O)N[C@@H](Cc3c[nH]c4ccccc34)C(=O)N[C@@H](CCCNC(=N)N)C(=O)NCCC[C@H](NC(=O)[C@H](Cc3ccccc3)NCC(=O)O)C(=O)N2C1` [Example 10, ((S)-1-(((3R,6S,9S,15S,19S,20aS)-6-((1H-indol-3-yl)methyl)-19-acetamido-9-(3-guanidinopropyl)-3-(((1s,4S)-4-hydroxycyclohexyl)methyl)-1,4,7,10,16-pentaoxoicosahydropyrrolo[1,2-a][1,4,7,10,13]pentaazacyclooctadecin-15-yl)amino)-1-oxo-3-phenylpropan-2-yl)glycine], the results for the Kb in assay [1] and in assay [2] were 11.7 nM and 2.1 nM, respectively. As to `N=C(N)NCCC[C@@H]1NC(=O)[C@H](Cc2c[nH]c3ncccc23)NC(=O)[C@@H](C[C@H]2CC[C@@H](O)CC2)NC(=O)[C@@H]2C[C@@H](O)CN2C(=O)[C@@H](NC(=O)[C@H](Cc2ccccc2)NCC(=O)O)CCCNC1=O` [Example 6, ((S)-1-(((3R,6S,9S,15S,19R,20aS)-6-((1H-pyrrolo[2,3-b]pyridin-3-yl)methyl)-9-(3-guanidinopropyl)-19-hydroxy-3-(((1s,4S)-4-hydroxycyclohexyl)methyl)-1,4,7,10,16-pentaoxoicosahydropyrrolo[1,2-a][1,4,7,10,13]pentaazacyclooctadecin-15-yl)amino)-1-oxo-3-phenylpropan-2-yl)glycine], the Kb stood at 460 nM in assay [1] and 68.1 nM in assay [2].

In the case of `N=C(N)NCCC[C@@H]1NC(=O)[C@H](Cc2n[nH]c3ccccc23)NC(=O)[C@@H](C[C@H]2CC[C@@H](O)CC2)NC(=O)[C@@H]2C[C@@H](O)CN2C(=O)[C@@H](NC(=O)[C@H](Cc2ccccc2)NCC(=O)O)CCCNC1=O` [Example 16, ((S)-1-(((31R,6S,9S,15S,19R,20aS)-6-((1H-indazol-3-yl)methyl)-9-(3-guanidinopropyl)-19-hydroxy-3-(((1s,4S)-4-hydroxycyclohexyl)methyl)-1,4,7,10,16-pentaoxoicosahydropyrrolo[1,2-a][1,4,7,10,13]pentaazacyclooctadecin-15-yl)amino)-1-oxo-3-phenylpropan-2-yl)glycine], the Kb in assay [1] was determined as 75.2 nM; in assay [2] it was 6.5 nM. Consider `N=C(N)NCCC[C@@H]1NC(=O)[C@H](Cc2c[nH]c3ccccc23)NC(=O)[C@@H](C[C@H]2CC[C@@H](O)CC2)NC(=O)[C@@H]2C[C@@H](NCC(=O)O)CN2C(=O)[C@@H](NC(=O)[C@H](Cc2ccccc2)NCC(=O)O)CCCNC1=O` [Example 14, ((31R,6S,9S,15S,19R,20aS)-6-((1H-indol-3-yl)methyl)-15-((S)-2-((carboxymethyl)amino)-3-phenylpropanamido)-9-(3-guanidinopropyl)-3-(((1s,4S)-4-hydroxycyclohexyl)methyl)-1,4,7,10,16-pentaoxoicosahydropyrrolo[1,2-a][1,4,7,10,13]pentaazacyclooctadecin-19-yl)glycine], for which, in assay [2], the Kb is 1.7 nM. For the molecule `CN(CC(=O)O)[C@@H](Cc1ccccc1)C(=O)N[C@H]1CCCNC(=O)[C@H](CCCNC(=N)N)NC(=O)[C@H](Cc2c[nH]c3ccccc23)NC(=O)[C@@H](C[C@H]2CC[C@@H](O)CC2)NC(=O)[C@@H]2C[C@@H](O)CN2C1=O` [Example 11, N—((S)-1-(((3R,6S,9S,15S,19R,20aS)-6-((1H-indol-3-yl)methyl)-9-(3-guanidinopropyl)-19-hydroxy-3-(((1s,4S)-4-hydroxycyclohexyl)methyl)-1,4,7,10,16-pentaoxoicosahydropyrrolo[1,2-a][1,4,7,10,13]pentaazacyclooctadecin-15-yl)amino)-1-oxo-3-phenylpropan-2-yl)-N-methylglycine] (X1-[Orn][Hyp][X2]WR; lactam 1-C), the Kb in assay [2] was found to be 1.2 nM.

For `[2H]c1cc([2H])cc(C[C@H](NCC(=O)O)C(=O)N[C@H]2CCCNC(=O)[C@H](CCCNC(=N)N)NC(=O)[C@H](Cc3c[nH]c4ccccc34)NC(=O)[C@@H](C[C@H]3CC[C@@H](O)CC3)NC(=O)[C@@H]3C[C@@H](O)CN3C2=O)c1` [Example 13, ((S)-1-(((3R,6S,9S,15S,19R,20aS)-6-((1H-indol-3-yl)methyl)-9-(3-guanidinopropyl)-19-hydroxy-3-(((1s,4S)-4-hydroxycyclohexyl)methyl)-1,4,7,10,16-pentaoxoicosahydropyrrolo[1,2-a][1,4,7,10,13]pentaazacyclooctadecin-15-yl)amino)-1-oxo-3-(3,5-dideuterophenyl)propan-2-yl)glycine], the Kb in assay [2] was determined as 1.3 nM. The same measure, in the same setting: the value for `COc1ccc2c(C[C@@H]3NC(=O)[C@@H](C[C@H]4CC[C@@H](O)CC4)NC(=O)[C@@H]4C[C@@H](O)CN4C(=O)[C@@H](NC(=O)[C@H](Cc4ccccc4)NCC(=O)O)CCCNC(=O)[C@H](CCCNC(=N)N)NC3=O)c[nH]c2c1` [Example 15, ((S)-1-(((3R,6S,9S,15S,19R,20aS)-9-(3-guanidinopropyl)-19-hydroxy-3-(((1s,4S)-4-hydroxycyclohexyl)methyl)-6-((6-methoxy-1H-indol-3-yl)methyl)-1,4,7,10,16-pentaoxoicosahydropyrrolo[1,2-a][1,4,7,10,13]pentaazacyclooctadecin-15-yl)amino)-1-oxo-3-phenylpropan-2-yl)glycine] was 2.2 nM.
